The values below are quoted from earlier work in patent publication US8586760B2, “Aminothiazole modulators of beta-3-adrenoreceptor” (Auspex Pharmaceuticals, Inc., priority 2009, dated 2013).

Data set [1] deals with CYP2D6 (Homo sapiens, UniProt P10635).
The target of data set [2] is CYP3A4 (Homo sapiens, UniProt P08684).
The mark [3] stands for this setting: poor metabolizers compared to extensive metabolizers.

SMILES strings stand for the structures.

CYP3A4, sequence (P08684 whole entry): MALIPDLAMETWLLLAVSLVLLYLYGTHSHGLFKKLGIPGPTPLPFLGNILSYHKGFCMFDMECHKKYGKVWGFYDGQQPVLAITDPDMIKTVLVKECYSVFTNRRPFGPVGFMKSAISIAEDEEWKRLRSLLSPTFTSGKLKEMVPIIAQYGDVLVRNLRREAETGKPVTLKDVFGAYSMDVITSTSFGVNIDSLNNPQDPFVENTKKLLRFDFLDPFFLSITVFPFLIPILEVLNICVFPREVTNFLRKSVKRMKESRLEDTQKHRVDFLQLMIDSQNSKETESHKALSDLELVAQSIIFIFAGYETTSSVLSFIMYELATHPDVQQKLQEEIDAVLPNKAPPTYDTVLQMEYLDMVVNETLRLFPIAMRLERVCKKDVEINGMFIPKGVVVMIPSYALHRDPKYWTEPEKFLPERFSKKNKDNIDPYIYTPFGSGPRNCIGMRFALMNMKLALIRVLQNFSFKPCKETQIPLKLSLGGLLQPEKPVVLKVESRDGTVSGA
CYP2D6, sequence (P10635 whole entry): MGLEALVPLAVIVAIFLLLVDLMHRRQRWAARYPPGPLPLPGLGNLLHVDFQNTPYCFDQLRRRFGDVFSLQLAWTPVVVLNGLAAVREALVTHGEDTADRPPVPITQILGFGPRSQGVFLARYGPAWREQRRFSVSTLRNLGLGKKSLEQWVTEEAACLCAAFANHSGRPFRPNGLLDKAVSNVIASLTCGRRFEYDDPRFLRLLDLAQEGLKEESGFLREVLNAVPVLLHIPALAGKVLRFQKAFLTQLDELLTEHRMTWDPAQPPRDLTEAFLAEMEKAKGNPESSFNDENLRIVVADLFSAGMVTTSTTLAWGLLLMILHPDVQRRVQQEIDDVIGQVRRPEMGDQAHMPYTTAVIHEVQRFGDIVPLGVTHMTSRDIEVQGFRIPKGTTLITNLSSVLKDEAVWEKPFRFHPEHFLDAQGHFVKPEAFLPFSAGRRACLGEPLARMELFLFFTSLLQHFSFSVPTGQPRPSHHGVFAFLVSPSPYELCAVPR

On to `Nc1nc(CC(=O)Nc2ccc(CCNC[C@H](O)c3ccccc3)cc2)cs1` [Mirabegron, 2-amino-N-[4-[2-[[(2R)-2-hydroxy-2-phenylethyl]amino]ethyl]phenyl]-4-thiazoleacetamide], for which the “metabolism by CYP2D6” value in data set [1] is on record as “oxidative cleavage”. Besides, the “metabolism by CYP3A4” value in data set [2] is listed as “oxidative cleavage”. For the same compound, where the note is “poor metabolizers”, the Intersubject variability entry was “generally higher”. Besides, under setting [3], the “Mean Cmax” value is given as “slightly higher”, the “mean AUC” value was “slightly higher” and the t1/2 result is “longer”.
